This is an account of results in ChEMBL document CHEMBL5154670, “Discovery of selective irreversible inhibitors of B-Lymphoid tyrosine kinase (BLK)” (Eur J Med Chem, 2022).

Test [1] addresses T1, Tyrosine-protein kinase BTK (Homo sapiens, UniProt Q06187). The experiment in a line: Inhibition of wild type N-terminal GST tagged BTK (unknown origin) (2 to 659 residues) expressed in sf21 insect cell using TK as substrate incubated for 50 mins in presence of ATP by HTRF assay. (TR-FRET usually uses a lanthanide donor and a delayed reading to cut background.)
Test [2] deals with T2, Tyrosine-protein kinase Blk (Homo sapiens, UniProt P51451). As to the kind of experiment: Inhibition of (S)-3-(3-(5-acrylamido-6-(3-(5-(2-methyl-5-(3-(trifluoromethyl)benzamido)benzamido)pyrimidin-2-ylamino)phenylamino)-6-oxohexylamino)-3-oxopropyl)-5,5-difluoro-7,9-dimethyl-5H-dipyrrolo[1,2-c:1',2'-f][1,3,2]diazaborinin-4-ium-5-uide binding to wild type BLK over expressed in HEK293 cells preincubated for 1 hr followed by compound washout for three times and treated with probe for 1 hr by competitive labeling assay. Format: cell-based.
Target sequence in this assay (P51451 2-505 limits assumed): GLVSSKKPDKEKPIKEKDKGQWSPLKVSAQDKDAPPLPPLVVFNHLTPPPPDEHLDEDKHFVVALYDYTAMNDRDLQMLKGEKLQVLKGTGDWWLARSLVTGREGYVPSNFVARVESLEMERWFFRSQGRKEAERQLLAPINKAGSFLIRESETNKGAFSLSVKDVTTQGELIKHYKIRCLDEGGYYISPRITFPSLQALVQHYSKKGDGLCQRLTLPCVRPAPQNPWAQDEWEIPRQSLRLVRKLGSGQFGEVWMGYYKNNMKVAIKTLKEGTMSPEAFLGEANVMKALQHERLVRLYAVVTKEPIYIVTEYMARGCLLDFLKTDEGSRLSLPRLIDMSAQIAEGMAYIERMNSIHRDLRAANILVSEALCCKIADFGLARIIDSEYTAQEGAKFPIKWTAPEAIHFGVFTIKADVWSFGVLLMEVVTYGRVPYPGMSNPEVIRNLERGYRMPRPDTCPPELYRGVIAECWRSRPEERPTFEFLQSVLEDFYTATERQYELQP

Test [3] concerns the target T2, Tyrosine-protein kinase Blk. The experiment in a line: Inhibition of wild type N-terminal GST tagged BLK (unknown origin) (1 to 505 residues) expressed in sf21 insect cell using TK as substrate incubated for 50 mins in presence of ATP by HTRF assay.
Target sequence in this assay (P51451 whole entry): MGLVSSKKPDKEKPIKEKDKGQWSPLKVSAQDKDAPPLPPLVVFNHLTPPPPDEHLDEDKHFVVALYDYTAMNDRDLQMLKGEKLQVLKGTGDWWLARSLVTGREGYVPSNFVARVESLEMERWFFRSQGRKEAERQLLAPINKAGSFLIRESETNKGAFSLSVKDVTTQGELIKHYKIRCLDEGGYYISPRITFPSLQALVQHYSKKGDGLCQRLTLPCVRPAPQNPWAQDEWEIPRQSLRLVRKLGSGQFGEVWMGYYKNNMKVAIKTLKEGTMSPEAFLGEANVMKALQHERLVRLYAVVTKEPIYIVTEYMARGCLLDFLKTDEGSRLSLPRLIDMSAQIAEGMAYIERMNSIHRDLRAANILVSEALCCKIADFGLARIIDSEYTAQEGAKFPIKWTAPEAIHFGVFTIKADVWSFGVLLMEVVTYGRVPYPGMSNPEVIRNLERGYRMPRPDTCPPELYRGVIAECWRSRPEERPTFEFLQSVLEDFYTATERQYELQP
Test [4] has the same target. As to the kind of experiment: Inhibition of (S)-3-(3-(5-acrylamido-6-(3-(5-(2-methyl-5-(3-(trifluoromethyl)benzamido)benzamido)pyrimidin-2-ylamino)phenylamino)-6-oxohexylamino)-3-oxopropyl)-5,5-difluoro-7,9-dimethyl-5H-dipyrrolo[1,2-c:1',2'-f][1,3,2]diazaborinin-4-ium-5-uide binding to BLK in human NAMALVA cells preincubated for 1 hr followed by compound washout for three times and treated with probe for 1 hr by competitive labeling assay. The class given is cell-based.
Target sequence in this assay (P51451 whole entry): as above

The test system of a further test is HEK293. The experiment in a line: Inhibition of (S)-3-(3-(5-acrylamido-6-(3-(5-(2-methyl-5-(3-(trifluoromethyl)benzamido)benzamido)pyrimidin-2-ylamino)phenylamino)-6-oxohexylamino)-3-oxopropyl)-5,5-difluoro-7,9-dimethyl-5H-dipyrrolo[1,2-c:1',2'-f][1,3,2]diazaborinin-4-ium-5-uide binding to BLK C319A mutant over expressed in HEK293 cells preincubated for 1 hr followed by compound washout for three times and treated with probe for 1 hr by competitive labeling assay. The note with it: Homo sapiens. The class given is cell-based.

Test [5] addresses T1, Tyrosine-protein kinase BTK. As to the kind of experiment: Inhibition of (S)-3-(3-(5-acrylamido-6-(3-(5-(2-methyl-5-(3-(trifluoromethyl)benzamido)benzamido)pyrimidin-2-ylamino)phenylamino)-6-oxohexylamino)-3-oxopropyl)-5,5-difluoro-7,9-dimethyl-5H-dipyrrolo[1,2-c:1',2'-f][1,3,2]diazaborinin-4-ium-5-uide binding to BTK in human NAMALVA cells preincubated for 1 hr followed by compound washout for three times and treated with probe for 1 hr by competitive labeling assay. Format: cell-based.

For test [6] the target is unchanged. As to the kind of experiment: Time dependent inhibition of wild type N-terminal GST tagged BTK (unknown origin) (2 to 659 residues) expressed in sf21 insect cell using TK as substrate in presence of ATP by HTRF assay. The conditions noted are these: time 50.0 min, TDE = time-dependent effect.
Another test is filed under the species Homo sapiens. The experiment in a line: Selectivity ratio, ratio of IC50 for inhibition of BTK (unknown origin) to IC50 for inhibition of BLK (unknown origin).
Test [7] has as its target Tyrosine-protein kinase Lyn (Homo sapiens) (UniProt P07948). As to the kind of experiment: Inhibition of LYN (unknown origin) relative to control. The note with it: concentration not given here.
The target of test [8] is Tyrosine-protein kinase CSK (Homo sapiens) (UniProt P41240). The experiment in a line: Inhibition of CSK (unknown origin) relative to control. The note with it: concentration not given here.
Sequence of Tyrosine-protein kinase CSK (Homo sapiens) (P41240 2-450 limits assumed): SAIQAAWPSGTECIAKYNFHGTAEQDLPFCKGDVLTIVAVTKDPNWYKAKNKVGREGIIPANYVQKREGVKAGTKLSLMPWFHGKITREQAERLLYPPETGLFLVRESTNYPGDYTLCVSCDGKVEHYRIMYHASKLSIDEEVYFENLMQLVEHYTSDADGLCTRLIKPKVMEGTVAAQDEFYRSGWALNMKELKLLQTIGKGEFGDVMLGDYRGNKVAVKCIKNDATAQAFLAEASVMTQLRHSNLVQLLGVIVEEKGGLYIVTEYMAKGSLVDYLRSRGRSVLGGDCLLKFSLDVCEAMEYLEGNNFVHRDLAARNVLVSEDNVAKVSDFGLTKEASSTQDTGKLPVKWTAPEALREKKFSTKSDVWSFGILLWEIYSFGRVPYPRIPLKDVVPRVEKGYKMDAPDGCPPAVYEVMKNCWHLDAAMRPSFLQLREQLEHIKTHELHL
Test [9] addresses Mitogen-activated protein kinase 14 (Homo sapiens) (UniProt Q16539). As to the kind of experiment: Inhibition of p38alpha (unknown origin) relative to control. The note with it: concentration not given here.

pIC50: −log10 of the molar value. Activity calls are given as the source filed them. The calls are words filed in the database; no cut-off is given here.

T1 sequence (Q06187 whole entry, the tested form may be a part): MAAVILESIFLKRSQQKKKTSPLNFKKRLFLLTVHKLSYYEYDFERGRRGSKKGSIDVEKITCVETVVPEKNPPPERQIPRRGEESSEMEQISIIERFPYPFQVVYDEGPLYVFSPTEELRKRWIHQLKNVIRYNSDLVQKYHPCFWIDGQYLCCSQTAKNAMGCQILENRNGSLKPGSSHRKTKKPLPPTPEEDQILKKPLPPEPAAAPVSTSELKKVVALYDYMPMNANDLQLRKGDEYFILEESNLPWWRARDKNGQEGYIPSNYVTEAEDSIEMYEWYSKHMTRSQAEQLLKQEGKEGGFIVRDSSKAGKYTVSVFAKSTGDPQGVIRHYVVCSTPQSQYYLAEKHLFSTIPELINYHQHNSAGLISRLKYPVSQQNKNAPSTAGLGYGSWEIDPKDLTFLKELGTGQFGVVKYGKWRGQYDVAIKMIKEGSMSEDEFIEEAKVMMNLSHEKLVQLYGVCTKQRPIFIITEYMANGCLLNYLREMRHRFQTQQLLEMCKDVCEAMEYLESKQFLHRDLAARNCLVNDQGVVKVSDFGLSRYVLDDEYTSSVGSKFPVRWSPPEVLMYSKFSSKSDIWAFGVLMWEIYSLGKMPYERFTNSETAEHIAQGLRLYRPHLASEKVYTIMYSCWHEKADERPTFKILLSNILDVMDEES
Sequence of Tyrosine-protein kinase Lyn (Homo sapiens) (P07948 2-512 limits assumed): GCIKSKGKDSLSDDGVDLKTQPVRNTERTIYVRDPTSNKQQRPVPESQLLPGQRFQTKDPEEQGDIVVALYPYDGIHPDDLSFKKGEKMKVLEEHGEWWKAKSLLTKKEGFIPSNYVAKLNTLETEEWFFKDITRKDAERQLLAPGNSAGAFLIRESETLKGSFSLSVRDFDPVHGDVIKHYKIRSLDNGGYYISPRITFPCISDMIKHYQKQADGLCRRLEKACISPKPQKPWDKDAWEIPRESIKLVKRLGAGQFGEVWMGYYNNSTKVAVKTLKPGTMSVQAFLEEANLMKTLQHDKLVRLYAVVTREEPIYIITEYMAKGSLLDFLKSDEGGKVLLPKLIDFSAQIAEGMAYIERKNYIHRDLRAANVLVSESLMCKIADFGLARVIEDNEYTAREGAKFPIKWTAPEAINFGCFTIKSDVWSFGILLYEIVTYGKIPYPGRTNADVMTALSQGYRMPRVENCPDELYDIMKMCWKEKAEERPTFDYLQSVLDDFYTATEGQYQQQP
Sequence of Mitogen-activated protein kinase 14 (Homo sapiens) (Q16539 whole entry): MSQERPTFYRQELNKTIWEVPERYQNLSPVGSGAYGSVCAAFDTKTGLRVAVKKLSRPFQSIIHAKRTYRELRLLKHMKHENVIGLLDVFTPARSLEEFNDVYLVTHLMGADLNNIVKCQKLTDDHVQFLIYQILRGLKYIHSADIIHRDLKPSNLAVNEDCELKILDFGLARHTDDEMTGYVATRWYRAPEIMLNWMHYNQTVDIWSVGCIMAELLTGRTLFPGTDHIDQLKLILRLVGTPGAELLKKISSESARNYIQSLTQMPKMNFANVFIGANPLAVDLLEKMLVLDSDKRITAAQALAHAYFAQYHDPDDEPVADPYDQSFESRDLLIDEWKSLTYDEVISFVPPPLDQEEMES

Broadly, the pIC50 is the IC50 on a negative log10 scale, so that one unit is a factor of ten. Turning to `C=CC(=O)NCCC(=O)Nc1cccc(Nc2ncc(NC(=O)c3cc(NC(=O)c4ccc5cnccc5c4)ccc3C)cn2)c1`, in [1], the pIC50 was 6.41.

With `Cc1ccc(NC(=O)c2ccc3cnccc3c2)cc1C(=O)Nc1cnc(Nc2cccc(NC3CCN(C(=O)CF)CC3)c2)nc1`, in test [1], the pIC50 is 7.20.

Consider `Cc1ccc(NC(=O)c2cccc(C(F)(F)F)c2)cc1C(=O)Nc1cnc(Nc2cccc(N)c2)nc1`, for which the pIC50 in test [1] is 7.38.

In the case of `COc1ccc2cc(C(=O)Nc3ccc(C)c(C(=O)Nc4cnc(Nc5cccc(N)c5)nc4)c3)ccc2c1`, in test [1], the pIC50 is 7.20.

Broadly, the inhibition is how much of the control response was suppressed. With `C=CC(=O)Nc1cccc(Nc2ncc(NC(=O)c3cc(NC(=O)c4cccc(C(F)(F)F)c4)ccc3C)cn2)c1`, the inhibition result (in test [2]; with HEK293) was “Active” throughout. Also, the figures for the pIC50 in test [3] and in test [4] were 7.73 and 7.82, respectively.

As for `C=CC(=O)Nc1cccc(Nc2ncc(NC(=O)c3cc(NC(=O)c4ccc5cnccc5c4)ccc3C)cn2)c1`, the values for the negative-log IC50 (pIC50) in [1] and in test [5] were 7.25 and 6.96, respectively. The inhibition result in test [6] was “Tde”.

`C=CC(=O)N1CCC(Nc2cccc(Nc3ncc(NC(=O)c4cc(NC(=O)c5ccc6cnccc6c5)ccc4C)cn3)c2)CC1`: in the test listed under Homo sapiens, the Ratio IC50 worked out at 6.6. Besides, the pIC50 in test [3] was 8.06; in [1] it was 7.24; in test [4], 8.26. Moreover, the inhibition in test [7], in test [8] and in [9] was > 80% each time.

`Cc1ccc(NC(=O)c2cccc(-c3ccccc3)c2)cc1C(=O)Nc1cnc(Nc2cccc(N)c2)nc1`: the pIC50 in test [1] is 6.18.

Take `Cc1ccc(NC(=O)c2cccc(-c3ccc(F)nc3)c2)cc1C(=O)Nc1cnc(Nc2cccc(N)c2)nc1`: the pIC50 in [1] is 6.30.

As for `Cc1ccc(NC(=O)c2ccc3cnccc3c2)cc1C(=O)Nc1cnc(Nc2cccc(N)c2)nc1`, in test [1], the pIC50 is 6.39.

Take `Cc1ccc(NC(=O)c2ccc3cc4ccccc4cc3c2)cc1C(=O)Nc1cnc(Nc2cccc(N)c2)nc1`: the pIC50 in [1] was 6.50.
